# Assay: Pharmacokinetics after duodenal injection of unformulated or formulated Dmt-DALDA in anesthetized rats (plasma, HPLC-UV)
# Type: in vivo
# Conditions: rats, formulated solution containing citric acid and lauroyl carnitine
# Protocol: In the experiments represented in the subject Figure, six anesthetized rats (which were color-coded as: red, white, blue, orange, green and yellow) were given 0.7 mL Dmt-DALDA (1.6 mg/mL) with a syringe through a 27 gauge needle into the duodenum. This injection procedure was followed due to the technical difficulty inherent in preparing capsules which can be swallowed by small animals the size of a rat. The intraduodanal injection, therefore, mimics the release of the components of an enteric-coated capsule formulation which would pass through the esophagus and stomach and release its contents in the duodenum. Three of the rats (red, white and blue) were given Unformulated Dmt-DALDA in which there were no additional components (i.e., other than the Dmt-DALDA), while the other three rats (orange, green and yellow) were given Formulated Dmt-DALDA which included, in addition to the Dmt-DALDA, 0.5M citric acid and lauroyl carnitine (10 mg/ml). Samples of blood were taken from the carotid artery through an indwelling catheter before and 5, 15, 30, 60 and 120 minutes after the administration of the respective formulations (i.e., Formulated and Unformulated). The blood samples were centrifuged and the resulting plasma supernatants were stored frozen at −20° C. […] Peptide was detected with an ultraviolet (UV) detector set at a wavelength of 210 nm. […] Table I, moreover, provides the standard deviations for the data obtained regarding each of the test rats, which standard deviations are also indicated in FIG. 1.
# Table II (below) summarizes the pharmacokinetic parameters in rats of orally administered unformulated and formulated Dmt-DALDA as those terms are defined above. Cmax refers to the maximum concentration of peptide detected in the rat plasma. The area under the curve (AUC) is a measure of the extent of peptide absorption and is calculated by the trapezoidal rule from a plot of peptide concentration as a function of time. Tmax indicates when the maximum concentration of the Dmt-DALDA in the blood serum was obtained.
smiles,measurement,value
"Cc1cc(O)cc(C)c1C[C@H](N)C(=O)N[C@H](CCCNC(=N)N)C(=O)N[C@@H](Cc1ccccc1)C(=O)N[C@@H](CCCCN)C(N)=O [Dmt-DALDA, H-2,6-dimethyltyrosine-D-Arginine-Phenylalanine-Lysine-NH2]","Cmax and AUC, formulated solution vs unformulated",significantly enhanced

# Reference: patent publication US8835377B2, “Oral delivery of peptide pharmaceutical compositions” (UGP Therapeutics, Inc., priority 2004, dated 2014)
